Experimental data from patent US12083124B2 (Incyte Corporation, priority 2019, dated 2024).
Read-outs that look alike come from different tables or passages of the source.

Experiments:
[1] = molecular target: wild-type un-phosphorylated FGFR1 (Homo sapiens, UniProt P11362); experiment: FGFR Enzymatic Assay (FRET peptide phosphorylation), FGFR1; details: pre-incubated for 4 hours
[2] = molecular target: wild-type un-phosphorylated FGFR2 (Homo sapiens, UniProt P21802); experiment: FGFR Enzymatic Assay (FRET peptide phosphorylation), FGFR2
Chain of wild-type un-phosphorylated FGFR2 (P21802 22-821): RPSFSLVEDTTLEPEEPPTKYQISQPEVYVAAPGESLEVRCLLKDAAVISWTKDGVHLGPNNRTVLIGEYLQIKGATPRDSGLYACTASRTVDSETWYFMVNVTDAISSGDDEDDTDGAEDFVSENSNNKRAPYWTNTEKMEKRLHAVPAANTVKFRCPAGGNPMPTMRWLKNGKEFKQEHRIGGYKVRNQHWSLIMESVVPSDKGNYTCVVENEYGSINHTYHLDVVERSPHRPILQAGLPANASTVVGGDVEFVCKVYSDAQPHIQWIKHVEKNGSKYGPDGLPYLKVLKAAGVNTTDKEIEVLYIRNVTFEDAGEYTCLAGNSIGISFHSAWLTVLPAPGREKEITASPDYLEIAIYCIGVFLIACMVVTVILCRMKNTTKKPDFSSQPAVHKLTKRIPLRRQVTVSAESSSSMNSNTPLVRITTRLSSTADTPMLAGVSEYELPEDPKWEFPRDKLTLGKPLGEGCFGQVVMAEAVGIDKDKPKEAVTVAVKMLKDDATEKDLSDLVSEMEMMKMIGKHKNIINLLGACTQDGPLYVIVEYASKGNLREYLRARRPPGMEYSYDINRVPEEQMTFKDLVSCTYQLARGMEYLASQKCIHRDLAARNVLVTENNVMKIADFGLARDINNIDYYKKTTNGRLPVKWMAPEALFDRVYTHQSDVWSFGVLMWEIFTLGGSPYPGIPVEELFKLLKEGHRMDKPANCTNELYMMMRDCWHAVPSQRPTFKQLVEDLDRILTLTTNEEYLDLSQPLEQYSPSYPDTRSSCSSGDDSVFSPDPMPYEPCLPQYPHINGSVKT

[3] = molecular target: wild-type un-phosphorylated FGFR3 (Homo sapiens, UniProt P22607); experiment: FGFR Enzymatic Assay (FRET peptide phosphorylation), FGFR3
Chain of wild-type un-phosphorylated FGFR3 (P22607 23-806): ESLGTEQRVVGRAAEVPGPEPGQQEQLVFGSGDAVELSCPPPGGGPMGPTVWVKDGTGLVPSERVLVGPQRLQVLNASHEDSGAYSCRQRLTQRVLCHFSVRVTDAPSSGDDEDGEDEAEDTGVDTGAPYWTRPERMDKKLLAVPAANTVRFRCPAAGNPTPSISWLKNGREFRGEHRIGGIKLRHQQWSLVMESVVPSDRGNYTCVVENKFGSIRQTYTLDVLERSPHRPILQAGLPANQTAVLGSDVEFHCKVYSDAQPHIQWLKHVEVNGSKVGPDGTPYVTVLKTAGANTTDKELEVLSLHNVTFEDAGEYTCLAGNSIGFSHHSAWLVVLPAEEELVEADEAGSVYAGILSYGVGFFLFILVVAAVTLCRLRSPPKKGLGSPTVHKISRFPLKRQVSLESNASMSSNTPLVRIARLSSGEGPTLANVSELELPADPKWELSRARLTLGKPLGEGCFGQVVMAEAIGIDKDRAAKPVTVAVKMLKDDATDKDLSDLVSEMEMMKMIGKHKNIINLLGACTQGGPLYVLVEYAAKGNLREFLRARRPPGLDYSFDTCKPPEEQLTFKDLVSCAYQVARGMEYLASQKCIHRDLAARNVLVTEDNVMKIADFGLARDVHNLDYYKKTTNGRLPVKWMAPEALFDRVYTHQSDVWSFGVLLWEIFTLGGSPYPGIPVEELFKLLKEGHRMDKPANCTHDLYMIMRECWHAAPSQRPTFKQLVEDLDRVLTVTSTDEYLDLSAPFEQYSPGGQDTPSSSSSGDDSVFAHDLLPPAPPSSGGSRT
Description: The inhibitor potency of the exemplified compounds was determined in an enzyme discontinuous assay that measures peptide phosphorylation using FRET measurements to detect product formation. Inhibitors were serially diluted in DMSO and a volume of 0.2 μL was transferred to the wells of a 384-well plate. […] Appropriate controls (enzyme blank and enzyme with no inhibitor) were included on the plate. […] The 10 μL/well reaction concentration of the peptide substrate was 500 nM whereas the ATP concentration was maintained near or below the ATP Km. The ATP Km values were pre-determined in a separate series of experiments. The reaction plate was incubated at 25° C. for 1 hr and the reactions were ended with the addition of 5 μL/well of quench solution (50 mM Tris, 150 mM NaCl, 0.5 mg/mL BSA, pH 7.8; 45 mM EDTA, 600 nM staurosporin, with Perkin Elmer Lance Reagents at 3.75 nM Eu-antibody PY20 and 180 nM APC-Streptavidin). The plate was allowed to equilibrate for ˜10 minutes at ambient temperature before scanning on a PheraStar plate reader (BMG Labtech) instrument.
Either GraphPad prism or XLfit was used to analyze the data. The IC50 values were derived by fitting the data to a four parameter logistic equation producing a sigmoidal dose-response curve with a variable Hill coefficient. Prism equation: Y=Bottom+(Top-Bottom)/(1+10^((Log IC50-X)*Hill slope)); XLfit equation: Y=(A+((B−A)/(1+((X/C)^D)))) where X is the logarithm of inhibitor concentration and Y is the response.
GraphPad prism3 was used to analyze the data. The IC50 values were derived by fitting the data to the equation for a sigmoidal dose-response with a variable slope. Y=Bottom+(Top-Bottom)/(1+10^((Log IC50-X)*Hill Slope)) where X is the logarithm of concentration and Y is the response.

[4] = FGFR1, wild-type un-phosphorylated FGFR1
[5] = read-out: FGFR2, wild-type un-phosphorylated FGFR2, pre-incubated for 4 hours
[6] = read-out: FGFR1, wild-type un-phosphorylated FGFR1
[7] = read-out: FGFR3, wild-type un-phosphorylated FGFR3, pre-incubated for 4 hours

Chain of wild-type un-phosphorylated FGFR1 (P11362 22-822): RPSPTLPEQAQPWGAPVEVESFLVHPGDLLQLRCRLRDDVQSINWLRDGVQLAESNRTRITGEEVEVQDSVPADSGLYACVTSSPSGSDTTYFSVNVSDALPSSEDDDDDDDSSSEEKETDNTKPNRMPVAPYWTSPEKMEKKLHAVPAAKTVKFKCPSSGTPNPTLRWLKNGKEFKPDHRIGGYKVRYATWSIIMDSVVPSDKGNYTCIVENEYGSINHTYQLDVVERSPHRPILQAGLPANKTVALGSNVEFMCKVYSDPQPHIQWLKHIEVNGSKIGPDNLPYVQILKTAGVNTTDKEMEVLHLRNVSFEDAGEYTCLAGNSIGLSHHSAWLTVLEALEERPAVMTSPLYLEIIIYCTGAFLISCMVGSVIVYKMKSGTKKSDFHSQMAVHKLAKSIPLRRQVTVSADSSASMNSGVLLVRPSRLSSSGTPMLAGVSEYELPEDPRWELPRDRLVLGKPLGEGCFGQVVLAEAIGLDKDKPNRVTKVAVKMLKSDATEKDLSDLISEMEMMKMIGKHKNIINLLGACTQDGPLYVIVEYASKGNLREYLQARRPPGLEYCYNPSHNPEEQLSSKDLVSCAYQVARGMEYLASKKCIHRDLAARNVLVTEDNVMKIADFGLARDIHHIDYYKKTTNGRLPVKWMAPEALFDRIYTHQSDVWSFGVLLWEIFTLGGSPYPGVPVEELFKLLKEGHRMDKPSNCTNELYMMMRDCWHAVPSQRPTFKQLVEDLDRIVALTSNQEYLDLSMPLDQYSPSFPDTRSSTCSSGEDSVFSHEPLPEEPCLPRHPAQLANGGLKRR

Row | SMILES | IC50 [1, 4] [nM] | IC50 [2, 5] [nM] | IC50 [3] [nM] | IC50 [2] [nM] | IC50 [1, 6] [nM] | IC50 [3, 7] [nM]
1 | COc1cc2[nH]nc(-c3ccc(OC4CCOC4)nc3)c2nc1-c1cccc2c1CC(O)C2 (single isomer, unassigned) [Example 73, 4-(6-Methoxy-3-(6-((tetrahydrofuran-3-yl)oxy)pyridin-3-yl)-1H-pyrazolo[4,3-b]pyridin-5-yl)-2,3-dihydro-1H-inden-2-ol] | 40 to 100 | 6 to 40 | < 6 | – | – | –
2 | [2H]C([2H])([2H])Oc1cc2[nH]nc(-c3ccc(N4CCN(C)CC4)nc3)c2nc1-c1cccc(C)c1C [Example 48, 5-(2,3-Dimethylphenyl)-6-(methoxy-d3)-3-(6-(4-methylpiperazin-1-yl)pyridin-3-yl)-1H-pyrazolo[4,3-b]pyridine] | 40 to 100 | – | < 6 | < 6 | – | –
3 | COc1cc2[nH]nc(-c3ccc(N4C[C@@H](F)[C@@H](N)C4)nc3)c2nc1-c1cccc(C)c1C [Example 80, (3S,4R)-1-(5-(5-(2,3-Dimethylphenyl)-6-methoxy-1H-pyrazolo[4,3-b]pyridin-3-yl)pyridin-2-yl)-4-fluoropyrrolidin-3-amine] | 40 to 100 | – | < 6 | < 6 | – | –
4 | COc1cc2[nH]nc(-c3cnn(C)c3)c2nc1-c1cccc2c1CCC2CO (single isomer, unassigned) [Example 11, (4-(6-Methoxy-3-(1-methyl-1H-pyrazol-4-yl)-1H-pyrazolo[4,3-b]pyridin-5-yl)-2,3-dihydro-1H-inden-1-yl)methanol] | 40 to 100 | – | < 6 | < 6 | – | –
5 | COc1cc2[nH]nc(-c3ccc(N4CCC(C)(C(=O)O)CC4)nc3)c2nc1-c1cccc(C)c1C [Example 51, 1-(5-(5-(2,3-Dimethylphenyl)-6-methoxy-1H-pyrazolo[4,3-b]pyridin-3-yl)pyridin-2-yl)-4-methylpiperidine-4-carboxylic acid] | 40 to 100 | – | < 6 | < 6 | – | –
6 | COc1cc2[nH]nc(-c3ccc(N4CCN5C[C@H](O)C[C@H]5C4)nc3)c2nc1-c1cccc2c1CCCO2 [Example 93, (7R,8aS)-2-(5-(5-(Chroman-5-yl)-6-methoxy-1H-pyrazolo[4,3-b]pyridin-3-yl)pyridin-2-yl)octahydropyrrolo[1,2-a]pyrazin-7-ol] | > 100 | 6 to 40 | < 6 | – | – | –
7 | COc1cc2[nH]nc(-c3ccc(C45CC4CN(CCO)C5)nc3)c2nc1-c1cccc2c1CCC2 (single isomer, unassigned) [Example 194B, 2-(1-(5-(5-(2,3-Dihydro-1H-inden-4-yl)-6-methoxy-1H-pyrazolo[4,3-b]pyridin-3-yl)pyridin-2-yl)-3-azabicyclo[3.1.0]hexan-3-yl)ethan-1-ol] | – | – | < 6 | < 6 | 6 to 40 | –
8 | COc1cc2[nH]nc(-c3ccc(C4(C#N)CCN(C(=O)[C@H]5COCCN5C)CC4)nc3)c2nc1-c1cccc2c1CCC2 [Example 196, (R)-4-(5-(5-(2,3-Dihydro-1H-inden-4-yl)-6-methoxy-1H-pyrazolo[4,3-b]pyridin-3-yl)pyridin-2-yl)-1-(4-methylmorpholine-3-carbonyl)piperidine-4-carbonitrile] | – | – | < 6 | < 6 | 6 to 40 | –
9 | COc1cc2[nH]nc(-c3ccc(C4CCC(C(=O)O)CC4)nc3)c2nc1-c1cccc(C)c1C (stereo not drawn) [Example 79, 4-(5-(5-(2,3-Dimethylphenyl)-6-methoxy-1H-pyrazolo[4,3-b]pyridin-3-yl)pyridin-2-yl)cyclohexane-1-carboxylic acid] | 40 to 100 | – | < 6 | < 6 | – | –
10 | COc1cc2[nH]nc(-c3ccc(N4CCN5C[C@H](O)C[C@H]5C4)nc3)c2nc1-c1cccc2c1CC(F)C2 (stereo partly drawn) [Example 83, (7R,8aS)-2-(5-(5-(2-Fluoro-2,3-dihydro-1H-inden-4-yl)-6-methoxy-1H-pyrazolo[4,3-b]pyridin-3-yl)pyridin-2-yl)octahydropyrrolo[1,2-a]pyrazin-7-ol] | – | – | < 6 | < 6 | 6 to 40 | –
11 | COc1cc2[nH]nc(-c3ccc(C45CC4CN(CCO)C5)nc3)c2nc1-c1cccc2c1CCC2 (single isomer, unassigned) [Example 194C, 2-(1-(5-(5-(2,3-Dihydro-1H-inden-4-yl)-6-methoxy-1H-pyrazolo[4,3-b]pyridin-3-yl)pyridin-2-yl)-3-azabicyclo[3.1.0]hexan-3-yl)ethan-1-ol] | – | < 6 | – | – | 6 to 40 | < 6
12 | COc1cc2[nH]nc(-c3ccc(N4CCN5C[C@H](O)C[C@H]5C4)nc3)c2nc1-c1cccc(OC)c1C [Example 90, (7R,8aS)-2-(5-(6-Methoxy-5-(3-methoxy-2-methylphenyl)-1H-pyrazolo[4,3-b]pyridin-3-yl)pyridin-2-yl)octahydropyrrolo[1,2-a]pyrazin-7-ol] | > 100 | 6 to 40 | < 6 | – | – | –
13 | COc1cc2[nH]nc(-c3ccc(N4CCC5(CC4)CNC(=O)O5)nc3)c2nc1-c1cccc(C)c1C [Example 65, 8-(5-(5-(2,3-Dimethylphenyl)-6-methoxy-1H-pyrazolo[4,3-b]pyridin-3-yl)pyridin-2-yl)-1-oxa-3,8-diazaspiro[4.5]decan-2-one] | > 100 | – | < 6 | < 6 | – | –
14 | COc1cc2[nH]nc(-c3ccc(N4CCN(CCO)CC4)nc3)c2nc1-c1cccc(CC#N)c1C [Example 89, 2-(3-(3-(6-(4-(2-Hydroxyethyl)piperazin-1-yl)pyridin-3-yl)-6-methoxy-1H-pyrazolo[4,3-b]pyridin-5-yl)-2-methylphenyl)acetonitrile] | > 100 | – | < 6 | < 6 | – | –
15 | COc1cc2[nH]nc(-c3cnn(C)c3)c2nc1-c1cccc2c1CCC2CO (single isomer, unassigned) [Example 12, (4-(6-Methoxy-3-(1-methyl-1H-pyrazol-4-yl)-1H-pyrazolo[4,3-b]pyridin-5-yl)-2,3-dihydro-1H-inden-1-yl)methanol] | – | < 6 | – | – | 40 to 100 | < 6
16 | COc1cc2[nH]nc(-c3cnn(C)c3)c2nc1-c1cccc2c1C[C@H](F)[C@@H]2O [Example 13, 2-Fluoro-4-(6-methoxy-3-(1-methyl-1H-pyrazol-4-yl)-1H-pyrazolo[4,3-b]pyridin-5-yl)-2,3-dihydro-1H-inden-1-ol] | > 100 | – | < 6 | – | – | –
17 | COc1cc2[nH]nc(-c3ccc(C4CC(=O)N(C)C4)nc3)c2nc1-c1cccc2c1CCC2C#N (single isomer, unassigned) [Example 75, 4-(6-Methoxy-3-(6-(1-methyl-5-oxopyrrolidin-3-yl)pyridin-3-yl)-1H-pyrazolo[4,3-b]pyridin-5-yl)-2,3-dihydro-1H-indene-1-carbonitrile] | – | – | < 6 | < 6 | 6 to 40 | –
18 | COc1cc2[nH]nc(-c3cnn(Cc4ncnn4C)c3)c2nc1-c1cccc(C)c1C [Example 3, 5-(2,3-Dimethylphenyl)-6-methoxy-3-(1-((1-methyl-1H-1,2,4-triazol-5-yl)methyl)-1H-pyrazol-4-yl)-1H-pyrazolo[4,3-b]pyridine] | 40 to 100 | – | < 6 | < 6 | – | –
19 | COc1cc2[nH]nc(-c3cnn(C4CC4)c3)c2nc1-c1cccc(C)c1C [Example 67, 3-(1-Cyclopropyl-1H-pyrazol-4-yl)-5-(2,3-dimethylphenyl)-6-methoxy-1H-pyrazolo[4,3-b]pyridine] | > 100 | – | < 6 | – | – | –
20 | COc1cc2[nH]nc(-c3cnn(-c4ccncc4)c3)c2nc1-c1cccc2c1CCC2 [Example 32, 5-(2,3-Dihydro-1H-inden-4-yl)-6-methoxy-3-(1-(pyridin-4-yl)-1H-pyrazol-4-yl)-1H-pyrazolo[4,3-b]pyridine] | > 100 | – | < 6 | – | – | –
21 | COc1cc2[nH]nc(-c3cnn(C)c3)c2nc1-c1cccc2c1CCC2O (single isomer, unassigned) [Example 7, 4-(6-Methoxy-3-(1-methyl-1H-pyrazol-4-yl)-1H-pyrazolo[4,3-b]pyridin-5-yl)-2,3-dihydro-1H-inden-1-ol] | 40 to 100 | – | < 6 | – | – | –
22 | COc1cc2[nH]nc(-c3ccc(N4CC[C@H](N(C)C(=O)CO)C4)nc3)c2nc1-c1cccc(C)c1C [Example 88, (S)-N-(1-(5-(5-(2,3-Dimethylphenyl)-6-methoxy-1H-pyrazolo[4,3-b]pyridin-3-yl)pyridin-2-yl)pyrrolidin-3-yl)-2-hydroxy-N-methylacetamide] | 40 to 100 | – | < 6 | – | – | –
23 | COc1cc2[nH]nc(-c3ccc(N4CCN(C)[C@H](C)C4)nc3)c2nc1-c1cccc(C)c1C [Example 47, (R)-5-(2,3-Dimethylphenyl)-3-(6-(3,4-dimethylpiperazin-1-yl)pyridin-3-yl)-6-methoxy-1H-pyrazolo[4,3-b]pyridine] | 40 to 100 | – | < 6 | – | – | –
24 | COc1cc2[nH]nc(-c3ccc(N4C[C@@H]5C[C@H]4CN5C)nc3)c2nc1-c1cccc(C)c1C [Example 49, 5-(2,3-Dimethylphenyl)-6-methoxy-3-(6-((1S,4S)-5-methyl-2,5-diazabicyclo[2.2.1]heptan-2-yl)pyridin-3-yl)-1H-pyrazolo[4,3-b]pyridine] | 40 to 100 | – | < 6 | – | – | –
25 | COc1cc2[nH]nc(-c3cnn(C)c3)c2nc1-c1cccc2c1CCC2C#N (stereo not drawn) [Example 9, 4-(6-Methoxy-3-(1-methyl-1H-pyrazol-4-yl)-1H-pyrazolo[4,3-b]pyridin-5-yl)-2,3-dihydro-1H-indene-1-carbonitrile] | 40 to 100 | – | < 6 | – | – | –
26 | Cn1cc(-c2n[nH]c3cc(C(F)F)c(-c4cccc5c4CCC5)nc23)cn1 [Example 35, 6-(Difluoromethyl)-5-(2,3-dihydro-1H-inden-4-yl)-3-(1-methyl-1H-pyrazol-4-yl)-1H-pyrazolo[4,3-b]pyridine] | 40 to 100 | – | < 6 | – | – | –
